Results: patent publication US10125100B2, “Kinase inhibitors” (Respivert Limited, priority 2014, dated 2018)

Tested on: Jurkat cells
Assay: (r) Cell cytotoxicity assay
Format: cell-based, human
Details: 24 hours
Protocol: 1×10^5 Jurkat cells (immortalised human T lymphocytes) are added to the appropriate number of wells of a 96 well plate in 100 μL of media (RPMI supplemented with 10% foetal bovine serum). 1 μL of DMSO control (final concentration 1.0% v/v) or test compound (final concentration 20, 5 or 1 μg/mL) is added to the wells and incubated at 37° C., 5% CO2. After 24 hours, the plate is centrifuged at 1200 rpm for 3 minutes and the supernatant discarded. Cells are then resuspended in 150 μL (final concentration 7.5 μg/mL) of propidium iodide (PI) in PBS and incubated at 37° C., 5% CO2 for 15 minutes. After 15 minutes, cells are analysed by flow cytometry (BD accuri) using the FL3 window. The % viability is calculated as the % of cells that are PI negative in the test wells normalised to the DMSO control.

COc1cc(Nc2cc(Oc3ccc(NC(=O)Nc4cc(C(C)(C)C)cc(NS(C)(=O)=O)c4OC)c4ccccc34)ccn2)ccc1S(=O)(=O)CCCN1CCN(C)CC1 [17(ch), N-(5-(tert-Butyl)-2-methoxy-3-(3-(4-((2-((3-methoxy-4-((3-(4-methylpiperazin-1-yl)propyl)sulfonyl)phenyl)amino)pyridin-4-yl)oxy)naphthalen-1-yl)ureido)phenyl)methanesulfonamide]
% Viability at 1 μg/mL: 82.0% | % Viability at 5 μg/mL: 10.2% | % Viability at 20 μg/mL: 0.7%

COc1cc(Nc2cc(Oc3ccc(NC(=O)Nc4cc(C(C)(C)C)cc(NS(C)(=O)=O)c4OC)c4ccccc34)ccn2)ccc1C(=O)NCCN1CCN(C(=O)CCC(=O)O)CC1 [17(ck), 4-(4-(2-(4-((4-((4-(3-(5-(tert-Butyl)-2-methoxy-3-(methylsulfonamido)phenyl)ureido)-naphthalen-1-yl)oxy)pyridin-2-yl)amino)-2-methoxybenzamido)ethyl)piperazin-1-yl)-4-oxobutanoic acid]
% Viability at 1 μg/mL: 96.1% | % Viability at 5 μg/mL: 96.1% | % Viability at 20 μg/mL: 95.5%

COc1cc(Nc2cc(Oc3ccc(NC(=O)Nc4cc(C(C)(C)C)cc(NS(C)(=O)=O)c4OC)c4ccccc34)ccn2)ccc1C(=O)NCCN1CCN(C(=O)CC[C@H](N)C(=O)O)CC1 [17(cl), (S)-2-Amino-5-(4-(2-(4-((4-((4-(3-(5-(tert-butyl)-2-methoxy-3-(methylsulfonamido)-phenyl)ureido)naphthalen-1-yl)oxy)pyridin-2-yl)amino)-2-methoxybenzamido)ethyl)piperazin-1-yl)-5-oxopentanoic acid]
% Viability at 1 μg/mL: 93.6% | % Viability at 5 μg/mL: 94.0% | % Viability at 20 μg/mL: 93.7%

COc1cc(Nc2cc(Oc3ccc(NC(=O)Nc4cc(C(C)(C)C)cc(NS(C)(=O)=O)c4OC)c4ccccc34)ccn2)ccc1C(=O)NC[C@@H]1O[C@H](CO)[C@@H](O)[C@H](O)[C@H]1O [17(co), 4-((4-((4-(3-(5-(tert-Butyl)-2-methoxy-3-(methylsulfonamido)phenyl)ureido)naphthalen-1-yl)oxy)pyridin-2-yl)amino)-2-methoxy-N-(((2S,3R,4R,5S,6R)-3,4,5-trihydroxy-6-(hydroxymethyl)tetrahydro-2H-pyran-2-yl)methyl)benzamide]
% Viability at 1 μg/mL: 94.5% | % Viability at 5 μg/mL: 93.3% | % Viability at 20 μg/mL: 92.2%

COc1cc(Nc2cc(Oc3ccc(NC(=O)Nc4cc(C(C)(C)C)cc(NS(C)(=O)=O)c4OC)c4ccccc34)ccn2)ccc1C(=O)N[C@@H]1CCN(C)C1 [17(cq), (R)-4-((4-((4-(3-(5-(tert-Butyl)-2-methoxy-3-(methylsulfonamido)phenyl)ureido)-naphthalen-1-yl)oxy)pyridin-2-yl)amino)-2-methoxy-N-(1-methylpyrrolidin-3-yl)benzamide]
% Viability at 1 μg/mL: 74.3% | % Viability at 5 μg/mL: 9.0% | % Viability at 20 μg/mL: 0.7%

COc1cc(Nc2cc(Oc3ccc(NC(=O)Nc4cc(C(C)(C)C)cc(NS(C)(=O)=O)c4OC)c4ccccc34)ccn2)ccc1C(=O)NCCN1CC[C@@H](O)C1 [17(cr), (R)-4-((4-((4-(3-(5-(tert-Butyl)-2-methoxy-3-(methylsulfonamido)phenyl)ureido)-naphthalen-1-yl)oxy)pyridin-2-yl)amino)-N-(2-(3-hydroxypyrrolidin-1-yl)ethyl)-2-methoxybenzamide]
% Viability at 1 μg/mL: 81.1% | % Viability at 5 μg/mL: 18.0% | % Viability at 20 μg/mL: 0.9%

COc1cc(Nc2cc(Oc3ccc(NC(=O)Nc4cc(C(C)(C)C)cc(NS(C)(=O)=O)c4OC)c4ccccc34)ccn2)ccc1C(=O)NCCOCCOCCC(=O)O [17(x), 3-[2-[2-[[4-[[4-[[4-[[5-tert-butyl-3-(methanesulfonamido)-2-methoxyphenyl]carbamoyl-amino]-1-naphthyl]oxy]-2-pyridyl]amino]-2-methoxy-benzoyl]amino]ethoxy]ethoxy]propanoic acid]
% Viability at 1 μg/mL: 95.4% | % Viability at 5 μg/mL: 94.2% | % Viability at 20 μg/mL: 38.9%

COc1cc(Nc2cc(Oc3ccc(NC(=O)Nc4cc(C(C)(C)C)cc(C(N)=O)c4OC)c4ccccc34)ccn2)ccc1C(=O)O [Example 3, 4-((4-((4-(3-(5-(tert-Butyl)-3-carbamoyl-2-methoxyphenyl)ureido)naphthalen-1-yl)oxy)pyridin-2-yl)amino)-2-methoxybenzoic acid]
% Viability at 1 μg/mL: 93.4% | % Viability at 5 μg/mL: 95.9% | % Viability at 20 μg/mL: 91.9%

COc1cc(Nc2cc(Oc3ccc(NC(=O)Nc4cc(C(C)(C)C)cc(NS(C)(=O)=O)c4OC)c4ccccc34)ccn2)cc(OC)c1C(=O)NCCCN1CCOCC1 [Example 23, 4-((4-((4-(3-(5-(tert-Butyl)-2-methoxy-3-(methylsulfonamido)phenyl)ureido)naphthalen-1-yl)oxy)pyridin-2-yl)amino)-2,6-dimethoxy-N-(3-morpholinopropyl)benzamide]
% Viability at 1 μg/mL: 92.4% | % Viability at 5 μg/mL: 88.9% | % Viability at 20 μg/mL: 89.8%

COc1cc(Nc2cc(Oc3ccc(NC(=O)Nc4cc(C(C)(C)C)cc(NS(C)(=O)=O)c4OC)c4ccccc34)ccn2)ccc1-c1nn[nH]n1 [Example 24, N-(5-(tert-Butyl)-2-methoxy-3-(3-(4-((2-((3-methoxy-4-(2H-tetrazol-5-yl)phenyl)amino)pyridin-4-yl)oxy)naphthalen-1-yl)ureido)phenyl)methanesulfonamide]
% Viability at 1 μg/mL: 104.3% | % Viability at 5 μg/mL: 92.4% | % Viability at 20 μg/mL: 9.7%

COc1cc(Nc2cc(Oc3ccc(NC(=O)Nc4cc(C(C)(C)C)cc(NS(C)(=O)=O)c4OC)c4ccccc34)ccn2)ccc1S(=O)(=O)N(C)CCCN1CCN(C)CC1 [Example 25, 4-((4-((4-(3-(5-(tert-Butyl)-2-methoxy-3-(methylsulfonamido)phenyl)ureido)naphthalen-1-yl)oxy)pyridin-2-yl)amino)-2-methoxy-N-methyl-N-(3-(4-methylpiperazin-1-yl)propyl)benzenesulfonamide]
% Viability at 1 μg/mL: 91.8% | % Viability at 5 μg/mL: 78.9% | % Viability at 20 μg/mL: 0.7%

COc1cc(Nc2cc(Oc3ccc(NC(=O)Nc4cc(C(C)(C)C)cc(NS(C)(=O)=O)c4OC)c4ccccc34)ccn2)ccc1C(=O)NCCC1CCNCC1 [Example 27, 4-((4-((4-(3-(5-(tert-Butyl)-2-methoxy-3-(methylsulfonamido)phenyl)ureido)naphthalen-1-yl)oxy)pyridin-2-yl)amino)-2-methoxy-N-(2-(piperidin-4-yl)ethyl)benzamide]
% Viability at 1 μg/mL: 101.2% | % Viability at 5 μg/mL: 94.9% | % Viability at 20 μg/mL: 1.7%

COc1cc(Nc2nccc(Oc3ccc(NC(=O)Nc4cc(C(C)(C)C)cc(NS(C)(=O)=O)c4OC)c4ccccc34)n2)ccc1S(N)(=O)=O [Example 28, 4-((4-((4-(3-(5-(tert-Butyl)-2-methoxy-3-(methylsulfonamido)phenyl)ureido)naphthalen-1-yl)oxy)pyrimidin-2-yl)amino)-2-methoxybenzenesulfonamide]
% Viability at 1 μg/mL: 100.0% | % Viability at 5 μg/mL: 41.1% | % Viability at 20 μg/mL: 18.9%
